Assay results from paper PMC9101642 (Molecules, 2022).
Read-outs that look alike come from different tables or passages of the source. Marks after values point to notes of the source that are not given here. One block for each compound: values may come before it.

Legend:
[1] = system: MCF-7 cell lines; experiment: MTT antiproliferative assay; assay type: cell-based, human
[2] = system: MRC-5 human lung fibroblast cell lines
[3] = target: T1, ERα (Homo sapiens, UniProt P03372); experiment: Fluorescence polarization competition assay: antagonistic potency and relative binding affinity; conditions: virtually screened NCI hits, Table S17; read-out: ERα (IC50)
T1 sequence (P03372 1-595): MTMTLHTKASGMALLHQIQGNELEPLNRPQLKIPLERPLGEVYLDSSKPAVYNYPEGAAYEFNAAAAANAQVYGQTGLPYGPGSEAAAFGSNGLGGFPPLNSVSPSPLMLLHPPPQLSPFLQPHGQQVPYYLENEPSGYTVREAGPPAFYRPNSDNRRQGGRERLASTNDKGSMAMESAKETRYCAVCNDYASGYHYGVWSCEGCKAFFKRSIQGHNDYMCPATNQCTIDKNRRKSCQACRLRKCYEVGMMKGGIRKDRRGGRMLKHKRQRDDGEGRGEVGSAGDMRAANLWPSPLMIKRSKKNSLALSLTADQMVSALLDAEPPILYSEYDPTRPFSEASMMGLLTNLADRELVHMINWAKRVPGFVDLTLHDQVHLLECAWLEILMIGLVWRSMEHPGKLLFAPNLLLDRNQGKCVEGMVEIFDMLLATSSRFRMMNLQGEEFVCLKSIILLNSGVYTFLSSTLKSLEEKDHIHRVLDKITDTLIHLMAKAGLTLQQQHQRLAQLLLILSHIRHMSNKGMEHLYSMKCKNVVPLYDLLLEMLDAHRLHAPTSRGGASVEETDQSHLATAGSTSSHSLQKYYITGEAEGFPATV

[4] = system: MDA-MB-231 cell lines; experiment: MTT antiproliferative assay; assay type: cell-based, human
[5] = Serum biochemical markers after treatment of MNU-induced rats; assay type: in vivo, Wistar rats; conditions: for ALP (A/L) / ALT (A/L) / AST (U/L) / γ-GT (U/L): serum; for TBC: total bilirubin content
Protocol: (§1) Rats were housed at 3 per cage and
(§2) The breast cancer was induced after the MNU (Sigma Aldrich CAS No. 684-93-5) administration. An aqueous solution at a concentration of 10 mg/ml was made by wetting the NMU powder with 3% acetic acid and then dissolving it in 0.9% NaCl solution; a fresh solution was prepared for each injection. Rats were given intraperitoneal (i.p.) 50 mg/kg of MNU on the 50th day of age. Animals were divided into different groups with six animals in each group. Group I (intact control) received 0.9% NaCl solution.
(§3) Groups II-IV and V-VII were introduced with MNU. Two weeks after MNU treatment, animals were treated orally with synthesized compounds and control substances (5 and 50 mg/kg, for groups II-IV and V-VII, respectively) by gavage once per day for six weeks. Animals in the intact control group and untreated MNU group were given vehicle (Tween 80) according to the experimental protocol. […]
Upon finishing the treatment with synthesized compounds, animals were sacrificed, and plasma, serum, and liver samples were collected.
Measurement of Serum Biochemical Markers
The activities of AST and ALT on 340 nm, and ALP on 405 nm, were determined by UV-Vis kinetic methods according to recommendations of the Expert Panel of the IFCC (International Federation of Clinical Chemistry). The colorimetric methods were used for the determination of total bilirubin (Jendrassik-Grof 550 nm method). All kinetic and colorimetric measurements were recorded using a Perkin-Elmer Lambda 25 UV/Vis spectrophotometer. […]

[6] = system: MNU-induced breast cancer; experiment: In vivo anticancer screening, MNU-induced mammary tumorigenesis; design: species or system female Wistar rats
[7] = physchem; conditions: pH 7.4
[8] = system: Ishikawa endometrial adenocarcinoma cells; experiment: Antiproliferative assay; assay type: cell-based; conditions: Homo sapiens, growth inhibition
[9] = system: MCF-7 cells; experiment: Cell cycle distribution by flow cytometry; assay type: cell-based, human; conditions: 24 h
[10] = rat, in vivo
[11] = target: ERβ (Homo sapiens, UniProt Q92731); experiment: Fluorescence polarization competition assay: antagonistic potency and relative binding affinity; conditions: log of % relative binding affinity, estradiol = 100%
Chain of ERβ (Q92731 whole entry): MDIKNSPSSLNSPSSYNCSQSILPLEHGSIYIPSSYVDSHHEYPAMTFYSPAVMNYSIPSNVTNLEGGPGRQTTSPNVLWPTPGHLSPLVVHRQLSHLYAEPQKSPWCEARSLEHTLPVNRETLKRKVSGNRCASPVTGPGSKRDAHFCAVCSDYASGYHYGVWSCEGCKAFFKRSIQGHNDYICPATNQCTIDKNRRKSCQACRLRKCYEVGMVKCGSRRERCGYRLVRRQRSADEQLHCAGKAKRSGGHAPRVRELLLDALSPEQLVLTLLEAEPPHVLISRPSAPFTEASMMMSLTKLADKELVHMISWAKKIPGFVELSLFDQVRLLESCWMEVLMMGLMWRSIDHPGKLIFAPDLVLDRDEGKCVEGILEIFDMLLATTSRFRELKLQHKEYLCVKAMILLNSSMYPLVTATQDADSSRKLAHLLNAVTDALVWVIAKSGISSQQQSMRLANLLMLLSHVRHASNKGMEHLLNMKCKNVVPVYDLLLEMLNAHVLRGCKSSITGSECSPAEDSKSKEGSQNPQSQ

[12] = system: MNU-induced breast cancer tissue; experiment: Histopathology of breast sections; assay type: in vivo, Wistar rats
Excerpt: The impact of selected leads on BC tissue was registered after their administration to experimental animals with MNU-induced BC (Figure 9 and Supplementary Material Figures S211–S218). […] In contrast to this, the administered leads were harmless in both concentrations, neutralizing the MNU-induced changes, judging by the lobuloalveolar units and cuboidal epithelial cells found (Figure 9C,D, and Supplementary Material Figures S214–S218). […]
Histopathological Studies
histopathological changes. […]

[13] = Plasma protein binding determination; assay type: in vitro ADME, rat; conditions: rat, plasma
Protocol: as §1, §2, §3
(§4) Upon finishing the treatment with synthesized compounds, animals were sacrificed, and plasma, serum, and liver samples were collected. […]
Rat plasma containing either 5 or 50 mg/kg bwt of the tested compounds was incubated at 37°C upper reservoir of the washed Centri-free YM-30 ultrafiltration units (Millipore, Bedford, MA) and then centrifuged for 20 min at 2,000 g. Aliquots of the ultrafiltrates and unfiltered incubation mixtures were analyzed for the total protein concentration by the bicinchoninic acid assay for protein concentration (BCA assay; Pierce, Rockford, IL).

[14] = both, Wistar, rat, in vivo, po
[15] = Liver oxidative stress markers after treatment of MNU-induced rats; assay type: in vivo, Wistar rats; conditions: rat, in vivo
Protocol: as §1, §2, §3, §4
Determination of Antioxidant Markers in Liver Homogenate
Rat liver samples were homogenized in phosphate buffer (5 mM, pH = 7.4) to give a 10% (w/v) liver homogenate and then centrifuged at 4000 rpm for 15 min at 4°C. The supernatant of liver homogenate was used for the estimation of reduced glutathione (GSH) and catalase (CAT) levels by the colorimetric method. The contents of malondialdehyde (MDA) in the supernatant of the liver homogenates were determined using 1,1,3,3-tetraethoxypropane as standard. Total protein concentrations were determined according to the method of Lowry using bovine serum albumin as […]

[16] = system: progesterone receptor (PR); experiment: ERα functional antagonism cell assay (PR as biomarker) in MCF-7; assay type: cell-based; conditions: Homo sapiens, MCF7; progesterone receptor as biomarker for ERα antagonism in MCF-7
[17] = virtually screened NCI hits, Table S17, read-out: MCF-7 (IC50)
[18] = virtually screened NCI hits, Table S17, read-out: MDA-MB-231 (IC50)
[19] = dose 50 mg/kg (compounds per os after MNU; MNU alone i.p.)

SMILES: COc1ccc(C(C#N)=C(c2ccccc2)c2ccccc2)cc1 [Compound 101789]
IC50 [1, 17]: 25900 ± 11400 nM
IC50 [2]: 14.2 ± 11.4 µM
IC50 [3]: 17.9 ± 1.34 µM
IC50 [4, 18]: > 100000 nM

IC50 [2]: > 100 µM
SMILES: O=c1c(-c2ccc(O)cc2)coc2cc(O)cc(O)c12 [Compound 36586]
IC50 [1, 17]: > 100000 nM
IC50 [4, 18]: > 100000 nM

SMILES: c1ccc(-n2c3ccccc3c3ccccc32)cc1 [Compound 10416]
IC50 [1, 17]: 89000 ± 11400 nM
IC50 [2]: > 100 µM
IC50 [3]: 74.8 ± 6.46 µM
IC50 [4, 18]: > 100000 nM

SMILES: O=C(O)c1ccccc1-n1c2ccccc2c2ccccc21 [Compound 10211]
IC50 [2]: > 100 µM
IC50 [3]: 66.9 ± 6.46 µM
IC50 [4, 18]: > 100000 nM

SMILES: O=C(c1ccc(OCCN2CCCCC2)cc1)c1c(-c2ccc(O)cc2)sc2cc(O)ccc12 [Ral., Raloxifene, reference compound]
ALP (A/L) ([5]; dose 5 mg/kg): 99.54±0.32 A/L
ALT (A/L) ([5]; dose 5 mg/kg): 50.14±0.35 A/L
AST (U/L) ([5]; dose 5 mg/kg): 53.57±0.43 U/L
γ-GT (U/L) ([5]; dose 5 mg/kg): 11.43 U/L
ALP (A/L) ([5]; dose 50 mg/kg): 106.43±0.54 A/L
ALT (A/L) ([5]; dose 50 mg/kg): 52.46±0.42 A/L
AST (U/L) ([5]; dose 50 mg/kg): 58.41±0.32 U/L
γ-GT (U/L) ([5]; dose 50 mg/kg): 12.35±0.31 U/L
TBC ([5]; dose 5 mg/kg): 18.53
TBC ([5]; dose 50 mg/kg): 22.46
Tumor Burden (week) ([6]; dose 5 mg/kg per os after MNU): 3.11 ± 0.47 *^,†,‡ week
Tumor Latency (week) ([6]; dose 5 mg/kg per os after MNU): 8 * week
Tumor Volume (mm^3) ([6]; dose 5 mg/kg per os after MNU): 1.67 ± 0.31 *^,†,‡ mm^3
Tumor Burden (week) [6, 19]: 2.91 ± 0.22 *^,†,§ week
Tumor Latency (week) [6, 19]: 13 *^,† week
Tumor Volume (mm^3) [6, 19]: 1.41 ± 0.54 *^,†§ mm^3
logD at 30 min [7]: 2.39
IC50 [8]: 0.97 ± 0.35 nM
Cell Cycle (%) G0/G1 ([9]; 0.1 nM): 59.14 ± 0.54 *^,†,‡ %
Cell Cycle (%) G2/M ([9]; 0.1 nM): 25.03 ± 0.35 *^,†,‡ %
Cell Cycle (%) S ([9]; 0.1 nM): 15.83 ± 0.53 *^,†,‡ %
Cell Cycle (%) G0/G1 ([9]; 1 nM): 66.52 ± 0.56 *^,†,‡ %
Cell Cycle (%) G2/M ([9]; 1 nM): 17.11 ± 0.46 *^,†,‡ %
Cell Cycle (%) S ([9]; 1 nM): 16.37 ± 0.46 *^,†,‡ %
WL after MFD (day 1, mg) [10]: 310.54 ± 0.45 mg
WL after MFD (day 5, mg) [10]: 300.54 ± 0.48 mg
logRBA ERβ [11]: 1.42 ^†
IC50 ([1]; read-out: MCF-7 (IC50 nM)): 0.9 ± 0.19 nM
breast section histopathology ([12]; 5 mg/kg of bwt): differentiated extralobular ducts (ED)
breast section histopathology ([12]; 50 mg/kg of bwt): differentiated extralobular ducts (ED)
fraction unbound at 5 mg/kg bwt [13]: 0.0185
fraction unbound at 50 mg/kg bwt [13]: 0.019
BIO ([14]; 5 mg/kg): 93 ^‡
BIO ([14]; 50 mg/kg): 96
CAT ([15]; 5 mg/kg): 10.73±0.32
GSH ([15]; 5 mg/kg): 6.65 mg/g
SOD (U/mg) ([15]; 5 mg/kg): 6.89±0.56 U/mg
TBARS ([15]; 5 mg/kg): 2.31 ± 0.56 nmol/mg
TP ([15]; 5 mg/kg): 42.67 g/L
CAT ([15]; 50 mg/kg): 14.43±0.56
GSH ([15]; 50 mg/kg): 5.54 ± 0.36 mg/g
SOD (U/mg) ([15]; 50 mg/kg): 8.46±0.23 U/mg
TBARS ([15]; 50 mg/kg): 2.63 ± 0.21 nmol/mg
TP ([15]; 50 mg/kg): 44.43 g/L
IC50 ([4]; growth inhibition, 48 h, read-out: MDA-MB-231 (IC50 nM)): 93.41 ± 0.48 nM
IC50 ([4]; references in Table S17, read-out: MDA-MB-231 (IC50 nM)): 93.12 ± 0.24 nM
IC50 [16]: > 100 nM

SMILES: O=C(c1ccccc1)c1ccccc1C(=O)c1ccccc1 [Compound 6145]
IC50 [1, 17]: 93400 ± 11400 nM
IC50 [2]: > 100 µM
IC50 [3]: 75.5 ± 6.46 µM
IC50 [4, 18]: > 100000 nM
